Measured values reported in article PMC8962522, “Direct interaction of TrkA/CD44v3 is essential for NGF-promoted aggressiveness of breast cancer cells” (Journal of Experimental & Clinical Cancer Research : CR, 2022).

Legend:
[1] = system: TrkA/CD44v3 complex in BT-474 cells; assay: PLA TrkA/CD44v3 complex formation in BT-474 cells; type: cell-based; conditions: luminal B; NGF 100 ng/ml
Experimental: Cells (10,000 cells per well) were grown on acid-washed eight-well glass slides (Thermo Scientific) in the appropriate medium supplemented with 10% FBS for 24 h. After NGF treatment, paraformaldehyde (PAF)-fixed cells were incubated with 4% bovine serum albumin (BSA) or 5% FBS (for 1 h at 20 °C), followed by overnight incubation with primary antibodies (rabbit anti-TrkA or rabbit anti-IgG + mouse anti-pan-CD44; mouse anti-CD44v3; mouse anti-CD44v6; mouse anti-IgG2a; mouse anti-IgG2b; or mouse anti-IgG1). PLA was performed following the manufacturer’s instructions in the assay kit (Duolink PLA; Sigma–Aldrich). To obtain the correct representation of the PLA signal for each condition, 30 fields per condition were observed using a fluorescence microscope (Eclipse TiU; Nikon, Japan). The PLA signals (red dots) were automatically quantified using ImageJ software (with an in-house-developed plug-in). […]
Fig. 7 The TrkA/CD44v3 complex is formed in PR-negative breast cancer cells and tumors. TrkA/CD44v3 complex formation was measured in SUM159-PT (triple negative—i.e., ERα-, PR-, and Her2-) cells (A), T47-D (luminal A—i.e., ERα+, PR+, and Her2-) cells (B), BT-474 (luminal B—ERα+, PR+, and Her2+) cells (C), HCC-1954 (Her2-like—ERα-, PR-, and Her2+) cells (D), and 150 tumor patient samples obtained from US BioMax (HBre-Duc150Sur01) (E, F) using the proximity ligation assay (PLA). […]

[2] = system: RhoA in MDA-MB-231 cells expressing kinase-dead TrkA; assay: Ratiometric FRET RhoA activation, kinase-dead TrkA cells; type: cell-based; conditions: for relocation of activated RhoA to the migration front / local RhoA activation, in words: 25 min NGF, relocation observed with scramble peptide
Experimental: MDA-MB-231 native or KD cells were seeded (5000 cells/well; ovn, 37 °C) in a chambered coverglass system (Lab-Tek®) coated with a type I collagen matrix (100 μg/mL; Corning). These cells were transfected using the pBabe-puro-RhoA plasmid (0.15 μg; Addgene plasmid #12602) diluted in a buffer solution (JetOPTIMUS® buffer) and a transfection agent (TA; 10 min). The mixture was incorporated into the culture medium (4 h; 37 °C). Two to three hours before image acquisition, the cells expressing the RhoA biosensor were starved in fresh EMEM containing 0.1% FBS and no phenol red. During image acquisition, the cells were maintained at 37 °C and with 5% CO2 in an incubation chamber installed under a microscope. Images were collected using a ZEISS LSM 880 confocal microscope with a plan-apochromat 63×/1.4 oil differential interference contrast (DIC) objective. The argon laser was tuned to emit 458 nm and 514 nm laser lines through a 470 to 500 nm bandpass emission filter (BP470–500) for CFP detection and a 530 nm longpass emission filter (LP530) for YFP detection. The emission of the CFP, FRET and YFP channels was recorded. The fluorescence emission ratios were computed using ImageJ software, which was also used to generate a report showing the FRET efficiency and intensity signal for each channel.
To further elucidate the mechanism of action of CD44v3 mimetic peptide 4, we studied its effect on the TrkA signaling pathway. […] Additionally, to confirm that this effect was independent of TrkA phosphorylation, we measured RhoA activation in MDA-MB-231 cells expressing dead TrkA kinase, which cannot be phosphorylated (Fig. 5D). […]
Fig. 5 CD44v3 is implicated in the phospho-TrkA-independent activation of RhoA GTPase. Phosphorylation of TrkA was measured in the presence of a scramble peptide or CD44v3 mimetic peptide 4 (P4) in the presence or absence of NGF (A). […] Phosphorylation of TrkA and downstream Akt in wild-type MDA-MB-231 and MDA-MB-231 cells expressing kinase-dead TrkA, as determined by western blotting (D). […]

Substance | effect on TrkA/CD44v3 complex formation (PLA) in BT-474 cells [1] | relocation of activated RhoA to the migration front / local RhoA activation, in words ([2]; not with peptide 4, listed as CD44v3 mimetic peptide 4) | relocation of activated RhoA to the migration front / local RhoA activation, in words ([2]; not with peptide 4, listed as P4) | NGF-induced increase in proportion of active RhoA, in words ([2]; 45 min NGF, statement: increased with scramble peptide, not with peptide 4)
NGF: recombinant human β-NGF (Alomone Labs, Israel) | NGF induction was insufficient to modulate TrkA/CD44v3 complex formation in BT-474 (luminal B) cells |  |  | 
IDDDEDFISST [Peptide 4, mimetic peptide 4 (…) corresponding to the C-terminal region of CD44v3] |  | relocation of activated RhoA to the migration front of the control cells with the scramble peptide after 25 min of NGF treatment but not with CD44v3 mimetic peptide 4 | impedes local RhoA activation independent of TrkA phosphorylation | NGF increased the proportion of active RhoA after 45 min in the presence of the scramble peptide (Fig. 5E) but not CD44v3 mimetic peptide 4
